Data reported in patent US12653873B2, “Peptide antigens and uses thereof” (HUMANITAS MIRASOLE S.P.A., priority 2019, dated 2026).

How the values were obtained:
Type in all cases: in vivo, mouse
C57BL6/J mice [1] = test: Immunization of healthy mice with pooled peptides in CFA/IFA, echocardiography; details: echocardiography at 2, 5 and 9 weeks after first subcutaneous injection; 100 μg of each peptide in CFA day 0, IFA boost day 21; vs CTR- (only CFA)
Method: In order to validate the functional relevance of identified antigens recognized by T cells driving HF, the inventors conducted the experiments as described below and schematically represented in FIG. 5.
Briefly, C57BL6/J 8-week-old male mice were screened, via echocardiography, at baseline for heart functionality and randomly divided into three experimental groups. Mice belonging to the negative control group (CTR−, only CFA) were injected subcutaneously (immunized) with 100 μl Complete Freud's Adjuvant (CFA) at day 0 and boosted with 100 μl of Incomplete Freud's Adjuvant (IFA) on day 21, without any antigen. […] Heart functionality of all mice was analyzed via echocardiography at 2, 5 and 9 weeks after the first subcutaneous injection.
The immunization experiments of healthy mice with peptides derived from beta-adrenergic receptor and from 14-3-3, Snrpd1, and Atp5o lead to cardiac dysfunction. […] Left ventricle functionality was measured as % FS (FIG. 6A) and Ejection Fraction (% EF) (FIG. 6B), which measure the volumetric capacity of the left ventricle to pump blood. […]

TAC-operated mice = test: Oral tolerance protocol followed by induction of Heart Failure via TAC, echocardiography; details: oral gavage 0.8 mg per day of each peptide for 4 days, TAC on day 7; 8 weeks after surgery; vs PBS alone
Method: To assess preventive protection potential of oral tolerance with the newly identified peptides from the development of Heart Failure, the inventors pursued an oral tolerance protocol to induce cardio-specific tolerance for the peptides, followed by active induction of Heart Failure via TAC.
Briefly, C57BL6/J 8-week-old male mice were screened at baseline via echocardiography. Each mouse was orally fed with 0.8 mg of each peptide from group 4: the peptide of SEQ ID NO. 1 (14-3-3 protein), the peptide of SEQ ID NO. 5 (Snrpd1 protein), and the peptide of SEQ ID NO. 14 (Atp5o protein) (i.e. 0.8 mg per day of each peptide, thus 2.4 mg/day in total), diluted in 600 μl of Phosphate Buffered-Saline (PBS) or plain PBS (as control) via oral feeding (oral gavage) for 4 days in a row. Three days after the end of this procedure, on day 7, the mice underwent TAC surgery, to experimentally induce Heart Failure. Echocardiographies were performed on both groups of mice to monitor their cardiac functionality at 2, 4 and 8 weeks after TAC-surgery. […] Data were plotted as mean±SEM, (n=8-11). Two-way ANOVA and Tukey's multiple comparison test with matching subjects. ** p<0.01, ***p<0.001.

[2] = tested on: Aldehyde dehydrogenase (ALDH); test: Aldefluor FACS analysis of dendritic cells from mesenteric lymph nodes after oral tolerance induction; details: eight weeks after oral tolerance induction in TAC-operated mice; vs PBS alone
Method: Briefly, eight weeks after oral tolerance induction in TAC-operated mice, mesenteric lymph nodes (MLN) were collected and dendritic cells (DC) were isolated for FACS analysis. Aldehyde dehydrogenase (ALDH) production of retinoic acid from the DC was measured via Aldefluor Fluorescent dye. FACS analysis of DC isolated from MLN of mice fed with the peptides of SEQ ID NO. […] Retinoic acid produced by tolerogenic DC contributes to Regulatory T cell (Treg) generation, essential for tolerance induction. […] Data are plotted as mean±SEM, (n=7-8). Unpaired t-test. * p<0.05.

C57BL6/J mice [3] = test: Immunization of healthy mice with single peptides in CFA/IFA, echocardiography; details: echocardiography at 2, 5 and 9 weeks after first subcutaneous injection; 100 μg peptide in CFA day 0, IFA boost day 21; vs CTR-
Method: C57BL6/J 8-week-old male mice were screened at baseline for heart functionality, via echocardiography, and randomly divided into 5 experimental groups. Mice belonging to control group (CTR−, only CFA) were injected subcutaneously (immunized, but without antigen: negative control) with 100 μl Complete Freud's Adjuvant (CFA) at day 0 and boosted with 100 μl of Incomplete Freud's Adjuvant (IFA) on day 21. Mice belonging to group 3 (CTR+) were injected subcutaneously (immunized, known antigen: positive control) with 100 μg of each of the three peptides (SEQ ID NOs. 15-17) derived from beta-adrenergic receptor and listed in the Table of FIG. 4, emulsified in Complete Freud's Adjuvant (CFA) at day 0 and boosted with 100 μg of the three peptides emulsified in Incomplete Freud's Adjuvant (IFA) on day 21. Mice belonging to group 4_A (Peptide 4_A) were injected subcutaneously (immunized) with 100 μg of the peptide of SEQ ID NO. 1, derived from 14-3-3 protein, emulsified in Complete Freud's Adjuvant (CFA) at day 0 and boosted with 100 μg of each of the three peptides emulsified in Incomplete Freud's Adjuvant (IFA) on day 21. Mice belonging to group 4_B (Peptide 4_B) were injected subcutaneously (immunized) with 100 μg of the peptide of SEQ ID NO. 5, derived from Snrpd1 protein, emulsified in Complete Freud's Adjuvant (CFA) at day 0 and boosted with 100 μg of each of the three peptides emulsified in Incomplete Freud's Adjuvant (IFA) on day 21. Mice belonging to group 4_C (Peptide 4_C) were injected subcutaneously (immunized) with 100 μg of the peptide of SEQ ID NO. 14, derived from Atp5o protein, emulsified in Complete Freud's Adjuvant (CFA) at day 0 and boosted with […] of each of the three peptides emulsified in Incomplete Freud's Adjuvant (IFA) on day 21. On day 0 and day 2, all the mice were intraperitoneally injected with 200 ng of Pertussis Toxin. Heart functionality of all mice was analyzed via echocardiography at 2, 5 and 9 weeks after the first subcutaneous injection. In FIG. 7, the results of echocardiography analysis of cardiac functionality parameters % FS and % EF of C57BL6/J mice immunized with the peptide of SEQ ID NO. 1 (14-3-3 protein), the peptide of SEQ ID NO. 5 (Snrpd1 protein), or the peptide of SEQ ID NO. 14 (Atp5o protein) are shown. […] Data are plotted as mean±SEM, (n=4-6). Two-way ANOVA and Tukey's multiple comparison test with matching subjects. * p<0.05, ** p<0.01, ***p<0.001.

| Substance | cardiac functionality, % FS (C57BL6/J mice [1]) | cardiac functionality, Ejection Fraction (% EF) (C57BL6/J mice [1]) | cardiac functionality, % EF (TAC-operated mice) | cardiac functionality, % FS (TAC-operated mice) | ALDH activity of DC isolated from MLN [2] | mean fluorescence intensity (MFI) of Aldefluor dye in DC [2] | percentage of ALDH positive DC [2] | % EF (C57BL6/J mice [3]) | % FS (C57BL6/J mice [3]) |
| --- | --- | --- | --- | --- | --- | --- | --- | --- | --- |
| Group 4: combination of the three peptides of SEQ ID NOs. 1, 5 and 14, derived from murine 14-3-3, Snrpd1 and Atp5o proteins (chain 1 LGLALNFSVFYYEIL; chain 2 EPVQLETLSIRGNNIRYFILPDSLP; chain 3 LTANLMNLLAENGRL; listed as Homo sapiens, listed as Mus musculus) | significant reduction of cardiac functionality | significant reduction of cardiac functionality | significantly better cardiac functionality | significantly better cardiac functionality | significant increase in ALDH activity | significant increase | significant increase |  |  |
| Peptide 4_A: peptide of SEQ ID NO. 1, derived from 14-3-3 protein (LGLALNFSVFYYEIL; listed as Homo sapiens) |  |  |  |  |  |  |  | significantly reduced | significantly reduced |
| Peptide 4_B: peptide of SEQ ID NO. 5, derived from Snrpd1 protein (EPVQLETLSIRGNNIRYFILPDSLP; listed as Homo sapiens) |  |  |  |  |  |  |  | significantly reduced | significantly reduced |
| Peptide 4_C: peptide of SEQ ID NO. 14, derived from mouse Atp5o protein (LTANLMNLLAENGRL; listed as Mus musculus) |  |  |  |  |  |  |  | significantly reduced | significantly reduced |
